“Also recorded” adds a separate entry of the source. Numbered stars: 1 amine (or outer) side, 2 acyl side, 3 side chain; on linkers, the order of the positions; unused ones are H or OH. Bridge positions count the residues as written; N and C are the ends. Square brackets hold non-standard residues; d marks the D form. Peptide text beside a SMILES is read from it. I, II: the chains in the order shown. Actinocin(9to1) = Cc1c2oc3c(C)ccc(C(=O)[*:1])c3nc-2c(C(=O)[*:2])c(N)c1=O; NMeV = CN[C@H](C(=O)O)C(C)C; Sar = CNCC(=O)O
Columns and labels:
[1] = test system: REC; experiment: Angiogenic assays taken together (proliferation, secondary sprouting, migration, tube formation); format: cell-based, bovine; details: all assays
Description: Treatment of REC cultures. Duplicate REC cultures on plastic (for migration) or MATRIGEL™ biological cell culture substrate with the same number of cells per dish are treated with previously established working concentrations of signaling inhibitors and/or select growth factor combinations. Treatments begin at the time of seeding the cells and medium is changed every other day. Single growth factors are used as negative controls since their modulation of TN-C effects was minimal. Working growth factor concentrations were as follows: VEGF, 1–50 ng/mL depending on the assay; PlGF, 100 ng/mL; FGF-2, 10–100 ng/mL; IGF-I, 25–100 ng/mL; PDGF-BB, 10–100 ng/mL. When used as combinations, each growth factor was supplied at 10 ng/mL for optimum synergy. The already tested inhibitors of signaling molecules (Sigma, Calbiochem, BIOMOL) were used at the following optimized doses: protein kinase A (inhibitor: H89 [25 μM]), PKC (inhibitor: calphostin C [2.5 μM]), PKC-β (inhibitor: LY379196 [50 nM]), Ca^2+/calmodulin kinase II (inhibitor: KN-93 [0.5 μM]), CK1 (inhibitor: CKI-7 [50 μM]), MEK-ERK (inhibitor: PD98059 [10 μM]), p38 MAP kinase (inhibitor: SB202190 [10 μM]), PI3 kinase (inhibitor: wortmannin [100 nM]), CK2 (inhibitors: emodin [20–25 μM] and DRB [20–25 μM]), CK2 and other kinases (inhibitor: quercetin [50 μM]); and a negative control for kinase inhibition (SB202474 [10 μM]). […]

[2] = test system: bovine REC; experiment: REC proliferation assay (MTS); format: cell-based; details: for effect of kinase inhibitors on proliferation: basal and growth factor-stimulated (CK2 blockers), H-7 preliminary, not shown
Description: (§1) REC proliferation and survival assays. 96-well plates were coated with various amounts of TN-C or vehicle. 5×10^3 cells were added to each triplicate well in low-serum REC medium with various amounts of growth factors (0.5% FCS incomplete BREC medium containing 10 ng/ml of human IGF-I, FGF-2, VEGF, PlGF and PDGF-BB [R&D Systems Inc., Minneapolis, Minn.]). Cell numbers were determined on days 4–7 using the MTS cell proliferation assay (Promega Corp.) according to manufacturer's instructions. Survival was measured in the same way using high glucose (30 mM) or chemical hypoxia (2 mM sodium azide) or serum-free medium to induce cell death. Cell numbers were determined on days 4–7 using MTS assay (Promega).

[3] = test system: bovine REC; experiment: REC survival assay (MTS, low serum); format: cell-based; details: for effect of growth factors on REC survival: growth factors 10 ng/mL each
Description: as §1

[4] = test system: bovine REC; experiment: Secondary sprouting assay on reconstituted basement membrane matrix (MTS); format: cell-based; details: for effect of kinase inhibitors on secondary sprouting: basal and growth factor-stimulated (CK2 blockers), H-7 preliminary, not shown
Description: (§2) In vitro MATRIGEL™ biological cell culture substrate assay of capillary-like tube formation and secondary sprouting. […] Briefly, 50 μL of reconstituted basement membrane matrix from mouse EHS tumor (BD or GFR MATRIGEL™ biological cell culture substrate; Becton Dickinson Labware, Bedford, Mass.) were dispensed with frozen pipettes into each well of a previously frozen, sterile 96-well plate sitting on wet ice and allowed to solidify for 1 hr at room temperature or 37° C. Approximately 5×10^4 or 7.5×10^4 REC in a 100 μL volume were seeded into each triplicate well. Human recombinant or purified growth factors were added to a final concentration of 10 ng/mL (or as noted) in 0.5% FCS incomplete BREC medium. Capillary-like tube structures formed by REC on reconstituted basement membrane matrix were photographed at various intervals ranging from 12–72 hr; pictures were scanned, digitized and analyzed using image-processing software.
For the secondary sprouting assay, cells on reconstituted basement membrane matrix were seeded as above but incubated in 0.5% FCS incomplete BREC medium without any growth factors for 3 days, allowing for tube formation and collapse. On day 3, human recombinant or purified growth factors were added to a final concentration of 10 ng/mL (or as noted) in low-serum incomplete BREC medium and incubated for another 5–6 days. Digital photographs were obtained with a Kodak MDS 100 camera attached to a Leitz DM IL inverted microscope. Digitized images obtained with a Kodak MDS 100 video camera were stored on compact discs and quantified with NIH Image 1.62 software. The number of living cells in the sprouting colonies were determined using the MTS cell proliferation assay.
A good correlation was observed between the spherical volume and the number of live cells in secondary sprouting colonies (not shown). Since the latter is an easy parameter to test by using the MTS assay, it was adopted as a faster method for studying the effect of various agents on secondary sprouting.

[5] = test system: bovine REC; experiment: Migration (wound healing) assay; format: cell-based; details: for effect of kinase inhibitors on migration: basal and growth factor-stimulated (CK2 blockers), H-7 preliminary, not shown; for effect of growth factors on REC migration: growth factors 10 ng/mL each
Description: Migration assay. REC migration rates were examined in a wound healing assay, where cells migrate over time into the scrape wound in a monolayer. Briefly, cells were seeded in 24-well plates and allowed to reach confluence in growth medium. Prior to growth factor treatment, cells were serum-starved overnight in incomplete BREC medium with 0.5% FCS. All monolayers within an experiment were wounded with a single sterile wood stick of constant diameter, to ensure uniformity in the wound areas among different treatments. Wounded monolayers were then rinsed with low-serum medium to remove detached cells and treated with various combinations of human growth factors at 10 ng/mL each. On day 7, cells were rinsed 3× with PBS and fixed with methanol for 15 min, rehydrated with dH2O and stained with Meyer's hematoxylin for 5 min, followed by destaining with dH2O. All wells were photographed with a 4× or 10× objective using a Kodak MDS 100 digital camera attached to a Leitz DM IL inverted microscope. The original wound area was measured at 0 hr and used as a baseline for comparison to the treated wells at the conclusion of the experiment. The number of cells migrated into the wound was determined. Migrating cell counting was automated using the AAB (Advanced American Biotechnology, Fullerton, Calif.) software. Data were calculated and statistically analyzed (Spirin K S et al., Basement membrane and growth factor gene expression in normal and diabetic human retinas, Curr. Eye Res. 18:490–499 [1999]) relative to control cultures that received the same concentrations of bovine serum albumin instead of growth factors and/or inhibitor, compared to vehicle instead of inhibitor after wounding. Inhibitors were added 30 min before growth factors.

[6] = test system: REC; experiment: Capillary-like tube formation on MATRIGEL; format: cell-based, bovine; details: for effect of kinase inhibitors on tube formation: basal and growth factor-stimulated (CK2 blockers), H-7 preliminary, not shown
Description: as §2

[7] = test system: retinal neovascularization; experiment: Oxygen-induced retinopathy in newborn mice; format: in vivo, mouse
[8] = test system: human REC; experiment: Gene array analysis of growth factor action on normal and DR REC; format: cell-based; details: 10 ng/mL, 7 days, 0.5% serum
Description: Normal REC and DR REC gene expression patterns were compared by gene array analysis. Normal, diabetic and DR autopsy human eyes are obtained from National Disease Research Interchange (NDRI), within 24 hours after death. These eyes are used to isolate REC for culture as described hereinabove. Cultures can be used up to the fourth passage, and viable cultures can be cryogenically stored. Cultures of normal, diabetic and DR REC are established from autopsy human eyes and routinely checked for purity using von Willebrand factor immunostaining as described hereinabove. Cells are cultured in 50% F-12, 50% low-glucose DMEM with antibiotics/antimycotics (GIBCO/BRL), insulin-transferrin-selenite, ECGS (Sigma Chemical Co.), and 20% FCS. Statistical analysis of results is done with GraphPad Prism software (GraphPad Software).
In experiments, normal, diabetic, and DR REC were grown for seven days with or without 10 ng/ml VEGF, or 10 ng/mL IGF-I, or 10 ng/mL each VEGF and IGF-I, in medium with 0.5% serum. Long-term rather than short-term treatment was chosen because diabetes develops over a considerable time period. RNA isolated from REC was reverse-transcribed using Smart™ cDNA synthesis method (Clontech), to produce full-length cDNA. Two normal cases or two DR cases were pooled together. This cDNA was PCR-amplified with a short number of cycles and used as a probe for Clontech Atlas Human 1.2 1,200-gene arrays, according to the manufacturer's instructions. This technique had previously been refined and verified by Northern analysis and fully correlated gene array data with protein expression. (Spirin K S et al., Analysis of gene expression in human bullous keratopathy corneas containing limiting amounts of RNA, Invest. Ophthalmol. Vis. Sci. 40:3108–3115 [1999]). Samples were normalized to several housekeeping genes and the analysis was done with available AtlasImage 2.0 software (Clontech). Signal ratio >2 between samples was considered significant as per manufacturer's recommendation.

Cc1c2oc3c(C)ccc(C(=O)N[C@@H]4C(=O)N[C@H](C(C)C)C(=O)N5CCC[C@H]5C(=O)N(C)CC(=O)N(C)[C@@H](C(C)C)C(=O)O[C@@H]4C)c3nc-2c(C(=O)N[C@@H]2C(=O)N[C@H](C(C)C)C(=O)N3CCC[C@H]3C(=O)N(C)CC(=O)N(C)[C@@H](C(C)C)C(=O)O[C@@H]2C)c(N)c1=O [Actinomycin D] (I: T[dV]P[Sar][NMeV] / II: T[dV]P[Sar][NMeV]; ester I:1-I:C, II:1-II:C; linker I:N-II:N via Actinocin(9to1))
effect of inhibitors in angiogenic assays [1]: only minor changes

OC[C@H]1O[C@@H](n2cnc3cc(Cl)c(Cl)cc32)[C@H](O)[C@@H]1O [DRB, 5,6-dichloro-1-β-D-ribofuranosylbenzimidazole]
effect of kinase inhibitors on proliferation [2]: potently inhibited | number of live cells, proliferation ([2]; bovine REC, 10% serum, various concentrations, day 6, MTS): significantly lowers cell number | number of live cells, survival ([3]; bovine REC, 0.5% serum, various concentrations, day 6, MTS): significantly lowers cell number | effect of kinase inhibitors on secondary sprouting [4]: potently inhibited | concentration from which live cell number in secondary sprouting is significantly decreased ([4]; bovine REC on MATRIGEL, 0.5% serum, day 9, MTS): ≥ 25 µM | effect of kinase inhibitors on migration [5]: potently inhibited | effect on growth factor-mediated cell migration ([5]; four GFs 10 ng/ml each, 7 days, 0.5% serum, emodin 10 μM, DRB 15 μM): significant inhibitory effect | effect of kinase inhibitors on tube formation [6]: potently inhibited | diminution of retinal neovascularization (preretinal nuclei count) ([7]; two intraperitoneal injections daily, day 11 to 17 after birth, emodin 20–30 μg/g, vs untreated or vehicle): about 60%

CC1CNCCN1S(=O)(=O)c1cccc2cnccc12 (centres unmarked) [H-7]
effect of kinase inhibitors on proliferation [2]: inhibited | effect of kinase inhibitors on secondary sprouting [4]: inhibited | effect of kinase inhibitors on migration [5]: inhibited | effect of kinase inhibitors on tube formation [6]: stabilized REC tubes

O=c1c(O)c(-c2ccc(O)c(O)c2)oc2cc(O)cc(O)c12 [quercetin]
effect of kinase inhibitors on proliferation [2]: potently inhibited | effect of kinase inhibitors on secondary sprouting [4]: potently inhibited | effect of kinase inhibitors on migration [5]: potently inhibited | effect of kinase inhibitors on tube formation [6]: potently inhibited | effect on retinal neovascularization ([7]; intramuscular injections, data not shown): substantial effect

FGF-2: fibroblast growth factor (FGF)-2, angiogenic growth factor
morphology of sprouting colonies after growth factor treatment ([4]; 10 ng/mL): longer and sparser sprouts | effect of growth factors on secondary sprouting (live cell number) ([4]; 10 ng/mL, 0.5% FCS medium): potently stimulated; also recorded: pro-angiogenic; also recorded: dramatic increase; also recorded: greatly enhanced | stimulation of secondary sprouting (fold, on average) ([4]; growth factors, live cells by MTS): four-fold | effect of growth factors on REC migration [5]: little or no effect | effect of growth factors on tube formation ([6]; growth factors 10 ng/mL each): little or no effect

IGF-I: insulin-like growth factor (IGF)-I
effect of growth factors on REC survival [3]: the opposite | effect of growth factors on REC migration [5]: the opposite | expression of pro-apoptotic genes [8]: decrease

VEGF
effect of growth factors on REC survival [3]: little effect | effect of growth factors on REC migration [5]: significantly enhanced | expression of pro-apoptotic genes [8]: did not display an increase | expression of proliferation-related genes [8]: upregulated | expression of various phosphatases [8]: downregulated
